Among the data in PubChem BioAssay AID330 (DTP/NCI, 2004) are T/C values, retold here.

Several values for one entry are separate records, joined by “and”; a condition that tells them apart may be missing. Equal entries are not always repeated. Inconclusive results and toxic doses are left out.

The subject of the assay is P388 leukemia ip, CD2F1 mice, survival T/C. Briefly: NCI In Vivo Anticancer Drug Screen. Data for tumor model P388 Leukemia (intraperitoneal) in CD2F1 (CDF1) mice. The note with it: endpoint: median survival time, higher = longer survival. In short, it runs like this: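 Mice carrying the transplanted tumor received test compound or vehicle. Survival was recorded in each group, and the value is the treated-group measurement divided by that of the vehicle-treated control group.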

Where [1] appears, read: dose: 50.0 mg/kg/injection, schedule: Q01DX009 (ip), vehicle: suspension in saline.
[2] abbreviates: dose: 100.0 mg/kg/injection, schedule: Q01DX009 (ip), vehicle: suspension in saline.
Setting [3] is: dose: 25.0 mg/kg/injection, schedule: Q01DX009 (ip), vehicle: saline with Tween-80.
The mark [4] stands for this setting: dose: 6.25 mg/kg/injection, schedule: Q01DX009 (ip), vehicle: saline.
The mark [5] stands for this setting: dose: 12.5 mg/kg/injection, schedule: Q01DX009 (ip), vehicle: saline.
Where [6] appears, read: dose: 50.0 mg/kg/injection, schedule: Q01DX009 (ip), vehicle: saline with Tween-80.
The mark [7] stands for this setting: dose: 25.0 mg/kg/injection, schedule: Q01DX009 (ip), vehicle: saline.
[8] abbreviates: dose: 50.0 mg/kg/injection, schedule: Q01DX005 (ip), vehicle: Klucel (hydroxypropylcellulose) (HPC).
[9] abbreviates: dose: 100.0 mg/kg/injection, schedule: Q01DX005 (ip), vehicle: Klucel (hydroxypropylcellulose) (HPC).
[10] abbreviates: dose: 200.0 mg/kg/injection, schedule: Q01DX005 (ip), vehicle: Klucel (hydroxypropylcellulose) (HPC).

Take `COc1cc2ccc(=O)oc2cc1O`: the T/C reads like this: (dose: 3.75 mg/kg/injection, schedule: Q01DX009 (ip), vehicle: saline with Tween-80) 100 % of control; (dose: 7.5 mg/kg/injection, schedule: Q01DX009 (ip), vehicle: saline with Tween-80) 103 % of control and 98 % of control; (dose: 15.0 mg/kg/injection, schedule: Q01DX009 (ip), vehicle: saline with Tween-80) 100 % of control and 107 % of control; (dose: 30.0 mg/kg/injection, schedule: Q01DX009 (ip), vehicle: saline with Tween-80) 104 % of control and 91 % of control; (dose: 50.0 mg/kg/injection, schedule: Q01DX009 (ip), vehicle: saline) 95 % of control; under setting [1], 99 % of control and 106 % of control. Besides, the T/C was 100 % of control (dose: 100.0 mg/kg/injection, schedule: Q01DX009 (ip), vehicle: saline); 104 % of control and 109 % of control under setting [2]; 100 % of control (dose: 200.0 mg/kg/injection, schedule: Q01DX009 (ip), vehicle: saline); 107 % of control and 108 % of control (dose: 200.0 mg/kg/injection, schedule: Q01DX009 (ip), vehicle: suspension in saline); 100 % of control (dose: 400.0 mg/kg/injection, schedule: Q01DX009 (ip), vehicle: saline); 111 % of control (dose: 400.0 mg/kg/injection, schedule: Q01DX009 (ip), vehicle: suspension in saline).
In the case of `O=C1/C(=C/c2cccnc2)Cc2ccccc21`, the T/C (dose: 12.5 mg/kg/injection, schedule: Q01DX009 (ip), vehicle: other) is 103 % of control; the T/C (dose: 25.0 mg/kg/injection, schedule: Q01DX009 (ip), vehicle: other) was 103 % of control; the T/C (dose: 50.0 mg/kg/injection, schedule: Q01DX009 (ip), vehicle: other) is 99 % of control; the T/C (dose: 100.0 mg/kg/injection, schedule: Q01DX009 (ip), vehicle: other) is 99 % of control; the T/C (dose: 200.0 mg/kg/injection, schedule: Q01DX009 (ip), vehicle: other) was 94 % of control.
With `NNP(=O)(Oc1ccccc1)Oc1ccccc1`, the T/C runs as follows: (dose: 3.12 mg/kg/injection, schedule: Q01DX009 (ip), vehicle: saline with Tween-80) 110 % of control; (dose: 6.25 mg/kg/injection, schedule: Q01DX009 (ip), vehicle: saline with Tween-80) 101 % of control; (dose: 12.5 mg/kg/injection, schedule: Q01DX009 (ip), vehicle: saline with Tween-80) 106 % of control; under setting [3], 109 % of control and 110 % of control.
Regarding `COc1cc([N+](=O)[O-])c(OC)c2c(=O)[nH]c(=O)[nH]c12`, the T/C was 98 % of control (dose: 6.25 mg/kg/injection, schedule: Q01DX005 (ip), vehicle: Klucel (hydroxypropylcellulose) (HPC)) and 90 % of control (dose: 12.5 mg/kg/injection, schedule: Q01DX005 (ip), vehicle: Klucel (hydroxypropylcellulose) (HPC)).
In the case of `O=S(=O)(O)O.[Cu+2].[NH2-].[NH2-].[NH2-].[NH2-]`, the T/C reads like this: (dose: 5.0 mg/kg/injection, schedule: Q04DX002 (ip), vehicle: saline) 99 % of control; under setting [4], 86 % of control; under setting [5], 93 % of control.
Regarding `COc1cc2c(c(OC)c1OC)-c1ccc(=O)c(OC)cc1C(N(C)C(C)=O)CC2` (centres undefined), the T/C was 100 % of control (dose: 1.25 mg/kg/injection, schedule: Q01DX009 (ip), vehicle: Klucel (hydroxypropylcellulose) (HPC)); 100 % of control (dose: 2.5 mg/kg/injection, schedule: Q01DX009 (ip), vehicle: Klucel (hydroxypropylcellulose) (HPC)); 113 % of control (dose: 5.0 mg/kg/injection, schedule: Q01DX009 (ip), vehicle: Klucel (hydroxypropylcellulose) (HPC)); 103 % of control (dose: 10.0 mg/kg/injection, schedule: Q01DX009 (ip), vehicle: Klucel (hydroxypropylcellulose) (HPC)); 106 % of control (dose: 20.0 mg/kg/injection, schedule: Q01DX009 (ip), vehicle: Klucel (hydroxypropylcellulose) (HPC)).
As for `CCOc1ccc(Nc2cc([N+](=O)[O-])ccc2C(=O)O)cc1`, the T/C was 91 % of control under setting [6] and 108 % of control (dose: 200.0 mg/kg/injection, schedule: Q01DX009 (ip), vehicle: saline with Tween-80).
For `O=NN(CCCl)C(=O)Nc1ccccc1`, the T/C reads like this: (dose: 0.5 mg/kg/injection, schedule: Q04DX003 (ip), vehicle: saline with Tween-80) 200 % of control; (dose: 1.25 mg/kg/injection, schedule: Q04DX003 (ip), vehicle: saline with Tween-80) 150 % of control; (dose: 2.5 mg/kg/injection, schedule: Q04DX003 (ip), vehicle: saline with Tween-80) 179 % of control; (dose: 5.0 mg/kg/injection, schedule: Q04DX003 (ip), vehicle: saline with Tween-80) 233 % of control; under setting [4], 227 % of control; under setting [5], 118 % of control. The T/C runs as follows: (dose: 12.5 mg/kg/injection, schedule: Q04DX003 (ip), vehicle: saline with Tween-80) 250 % of control; under setting [7], 95 % of control; (dose: 25.0 mg/kg/injection, schedule: Q04DX003 (ip), vehicle: saline with Tween-80) 91 % of control.
For `CCCCC(C)(CCN)CCCC`, the T/C (dose: 25.0 mg/kg/injection, schedule: Q01DX009 (ip), vehicle: suspension in saline) is 103 % of control; the T/C under setting [1] is 105 % of control; the T/C under setting [2] was 106 % of control.
`O=c1[nH]c2c(c3c1CCCC3)CC1(CC2)OCCO1`: the T/C by setting is: (dose: 100.0 mg/kg/injection, schedule: Q04DX002 (ip), vehicle: Klucel (hydroxypropylcellulose) (HPC)) 105 % of control; (dose: 200.0 mg/kg/injection, schedule: Q04DX002 (ip), vehicle: Klucel (hydroxypropylcellulose) (HPC)) 100 % of control; (dose: 400.0 mg/kg/injection, schedule: Q04DX002 (ip), vehicle: Klucel (hydroxypropylcellulose) (HPC)) 108 % of control.
As to `COC(=O)NC1C(C)OC(OC2C/C=C(/C)C3C=CC4C(OC5CC(OC6CC(OC7CC(O)C(O)C(C)O7)C(OC7CC(O)C(OC)C(C)O7)C(C)O6)C(O)C(C)O5)C(C)CC(C)C4C3(C)/C(O)=C3\C(=O)OC4(CC(C)C(CO)=CC4/C=C\2C)C3=O)CC1(C)[N+](=O)[O-]` (centres undefined), the T/C by setting is: (dose: 7.5 mg/kg/injection, schedule: Q01DX009 (ip), vehicle: saline) 106 % of control; (dose: 15.0 mg/kg/injection, schedule: Q01DX009 (ip), vehicle: saline) 115 % of control and 122 % of control; (dose: 30.0 mg/kg/injection, schedule: Q01DX009 (ip), vehicle: saline) 121 % of control.
`Cc1ccc2nc3[nH]c(=O)[nH]c(=O)c3c(C(N)=O)c2c1`: the T/C is, setting by setting: under setting [8], 100 % of control; under setting [9], 94 % of control; under setting [10], 94 % of control.
As for `COC(=O)C1(C)CCCC2(C)C3=CC(=O)OC3(OC)CCC12` (centres undefined), the T/C reads like this: (dose: 2.5 mg/kg/injection, schedule: Q01DX009 (ip), vehicle: saline with Tween-80) 107 % of control; (dose: 5.0 mg/kg/injection, schedule: Q01DX009 (ip), vehicle: saline with Tween-80) 101 % of control; (dose: 10.0 mg/kg/injection, schedule: Q01DX009 (ip), vehicle: saline with Tween-80) 103 % of control.
Consider `C=C=C(COC(C)=O)ON1CCOCC1`, for which the T/C reads like this: (dose: 100.0 mg/kg/injection, schedule: Q01DX001 (ip), vehicle: saline) 99 % of control; (dose: 200.0 mg/kg/injection, schedule: Q01DX001 (ip), vehicle: saline) 103 % of control; (dose: 400.0 mg/kg/injection, schedule: Q01DX001 (ip), vehicle: saline) 100 % of control.
For the compound `CNC(=O)OCc1c(COC(=O)NC)c(C)n(-c2ccc(F)cc2)c1C`, the T/C under setting [7] was 155 % of control.
On to `CCOc1cccc(/C=C2\NC(=S)N(c3ccccc3)C2=O)c1O`, for which the T/C under setting [8] was 101 % of control, the T/C under setting [9] is 93 % of control and the T/C under setting [10] was 99 % of control.
Turning to `CC(C)(Br)C(C)(C)OO`, the T/C is, setting by setting: (dose: 18.75 mg/kg/injection, schedule: Q04DX003 (ip), vehicle: Klucel (hydroxypropylcellulose) (HPC)) 104 % of control; (dose: 37.5 mg/kg/injection, schedule: Q04DX003 (ip), vehicle: Klucel (hydroxypropylcellulose) (HPC)) 112 % of control; (dose: 75.0 mg/kg/injection, schedule: Q04DX003 (ip), vehicle: Klucel (hydroxypropylcellulose) (HPC)) 104 % of control.
As for `CC(C)(C)N(OC(=O)c1ccc(Cl)cc1)c1ccccc1`, the T/C is 99 % of control under setting [3] and 99 % of control under setting [6].
